In PubChem BioAssay AID292 (DTP/NCI, 2004):
Where “and” joins values, the source holds several entries; their conditions need not be identical. Identical values can stand only once. Inconclusive results and toxic doses are left out. Rule for the calls: active = survival T/C of 150% or more; inactive = T/C below 125% in these data.

System: B6C3F1 mice, ip Sarcoma M5076, median survival T/C
Test: NCI In Vivo Anticancer Drug Screen. Data for tumor model Sarcoma M5076 (intraperitoneal) in B6C3F1 mice
Details: endpoint: median survival time, schedule: Q04DX004 (ip), higher = longer survival
Method in brief: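 The readout is a ratio of survival in drug-treated animals to survival in animals given vehicle alone, taken in mice bearing a transplanted tumour line.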

[1] = dose: 25.0 mg/kg/injection, vehicle: saline
[2] = dose: 50.0 mg/kg/injection, vehicle: saline
[3] = dose: 100.0 mg/kg/injection, vehicle: saline
[4] = dose: 200.0 mg/kg/injection, vehicle: saline
[5] = dose: 50.0 mg/kg/injection, vehicle: Klucel (hydroxypropylcellulose) (HPC)
[6] = dose: 100.0 mg/kg/injection, vehicle: Klucel (hydroxypropylcellulose) (HPC)
[7] = dose: 25.0 mg/kg/injection, vehicle: Klucel (hydroxypropylcellulose) (HPC)
[8] = dose: 200.0 mg/kg/injection, vehicle: Klucel (hydroxypropylcellulose) (HPC)
[9] = dose: 400.0 mg/kg/injection, vehicle: Klucel (hydroxypropylcellulose) (HPC)
[10] = dose: 25.0 mg/kg/injection, vehicle: water
[11] = dose: 50.0 mg/kg/injection, vehicle: water
[12] = dose: 100.0 mg/kg/injection, vehicle: water
[13] = dose: 200.0 mg/kg/injection, vehicle: water
[14] = dose: 400.0 mg/kg/injection, vehicle: water
[15] = dose: 75.0 mg/kg/injection, vehicle: saline

Measured: T/C

COC1C(O)CC(OC2CC(Oc3cc4cc5c(c(O)c4c(O)c3C)C(=O)[C@@H](OC3CC(OC4CC(OC6CC(C)(O)C(OC(C)=O)C(C)O6)C(O)C(C)O4)C(O)C(C)O3)[C@H]([C@H](OC)C(=O)[C@@H](O)[C@@H](C)O)C5)OC(C)C2OC(C)=O)OC1C (stereo not given in full)
inactive: dose: 37.5 micrograms/kg/injection, vehicle: water 110 % of control | dose: 75.0 micrograms/kg/injection, vehicle: water 111 % of control

C/C(=N\NC(=O)c1ccccc1O)c1cccc(/C(C)=N/NC(=O)c2ccccc2O)n1
inactive: [1] 88 % of control | dose: 25.0 mg/kg/injection, vehicle: suspension in saline 108 % of control | [2] 88 % of control | dose: 100.0 mg/kg/injection, vehicle: suspension in saline 116 % of control

O=C1C(=O)c2cccnc2-c2ncccc21
inactive: dose: 0.38 mg/kg/injection, vehicle: Klucel (hydroxypropylcellulose) (HPC) 101 % of control | dose: 0.75 mg/kg/injection, vehicle: Klucel (hydroxypropylcellulose) (HPC) 109 % of control | dose: 1.5 mg/kg/injection, vehicle: Klucel (hydroxypropylcellulose) (HPC) 104 % of control | dose: 3.0 mg/kg/injection, vehicle: Klucel (hydroxypropylcellulose) (HPC) 105 % of control | dose: 6.0 mg/kg/injection, vehicle: Klucel (hydroxypropylcellulose) (HPC) 110 % of control

CCN(CC)CCCC(C)Nc1c2ccc(Cl)cc2nc2ccc(OC)cc12 (stereo not given)
inactive: [1] 111 % of control | [2] 115 % of control | [3] 112 % of control | [4] 91 % of control

N#CC1C(=O)NC(=S)NC1c1ccc(Cl)cc1 (stereo not given)
inactive: [5] 103 % of control | [6] 100 % of control

CCOC(=O)/C=C/C(=O)N1CCN(C(=O)/C=C/C(=O)OCC)C(C)C1 (stereo not given)
inactive: [7] 98 % of control | [5] 107 % of control | [6] 98 % of control | [8] 108 % of control | [9] 100 % of control

c1cc2c(c(CC3CO3)c1CC1CO1)OCCOCCOCCOCCO2 (stereo not given)
inactive: dose: 25.0 mg/kg/injection, vehicle: saline + alcohol 107 % of control | dose: 50.0 mg/kg/injection, vehicle: saline + alcohol 108 % of control | dose: 100.0 mg/kg/injection, vehicle: saline + alcohol 111 % of control | dose: 200.0 mg/kg/injection, vehicle: saline + alcohol 120 % of control

C=CC1(C)CC(=O)C2(O)C(C)(O1)C(OC(C)=O)C(O)C1C(C)(C)CCC(O)C12C (stereo not given)
inactive: dose: 2.0 mg/kg/injection, vehicle: DMSO 98 % of control | dose: 4.0 mg/kg/injection, vehicle: DMSO 104 % of control | dose: 8.0 mg/kg/injection, vehicle: DMSO 98 % of control | dose: 16.0 mg/kg/injection, vehicle: DMSO 96 % of control and 101 % of control | dose: 32.0 mg/kg/injection, vehicle: DMSO 95 % of control and 107 % of control

c1cn[nH]c1
inactive: [1] 93 % of control and 100 % of control | [2] 97 % of control and 106 % of control and 107 % of control | [3] 103 % of control and 104 % of control and 107 % of control | [4] 105 % of control and 107 % of control and 110 % of control | dose: 400.0 mg/kg/injection, vehicle: saline 116 % of control

COc1cccc(C2C(C#N)C(=O)NC(=O)C2C#N)c1 (stereo not given)
inactive: [5] 99 % of control | [6] 102 % of control | [8] 98 % of control | [9] 95 % of control

CC1=CC(C)C(O)C(C)/C=C/C(O)C/C=C(/C)C(=O)CC(O)C(C)\C=C/C=C/C=C\C(=O)NC2=C(O)c3cc(C)c(O)c(c3C(=O)C2=O)C1=O (stereo not given)
inactive: dose: 1.25 mg/kg/injection, vehicle: Klucel (hydroxypropylcellulose) (HPC) 109 % of control | dose: 2.5 mg/kg/injection, vehicle: Klucel (hydroxypropylcellulose) (HPC) 97 % of control | dose: 5.0 mg/kg/injection, vehicle: Klucel (hydroxypropylcellulose) (HPC) 102 % of control | dose: 10.0 mg/kg/injection, vehicle: Klucel (hydroxypropylcellulose) (HPC) 102 % of control | [7] 98 % of control

NC(=O)c1c[se]c(C2OC(CO)C(O)C2O)n1 (stereo not given)
inactive: [10] 96 % of control | [11] 100 % of control | [12] 102 % of control | [13] 106 % of control | [14] 113 % of control

O=C(O)C(O)C(O)C1[O][Sb][O]C1C(=O)O (stereo not given)
inactive: dose: 9.37 mg/kg/injection, vehicle: saline 100 % of control | dose: 9.38 mg/kg/injection, vehicle: saline 107 % of control | dose: 18.75 mg/kg/injection, vehicle: saline 99 % of control and 110 % of control | dose: 37.5 mg/kg/injection, vehicle: saline 110 % of control and 114 % of control | [15] 99 % of control and 111 % of control

CC1=C(/C=C/C(C)=C/C=C/C(C)=C/C=O)C(C)(C)CCC1
inactive: dose: 75.0 mg/kg/injection, vehicle: saline + alcohol 104 % of control | dose: 150.0 mg/kg/injection, vehicle: saline + alcohol 96 % of control

C#CCN(Cc1ccc2nc(N)[nH]c(=O)c2c1)c1ccc(C(=O)NC(CCC(=O)O)C(=O)O)cc1 (stereo not given)
inactive: [10] 98 % of control | [11] 98 % of control and 118 % of control | [12] 120 % of control
active: [13] 162 % of control | [14] 152 % of control and 175 % of control

O=C1c2c(O)cccc2-c2nn(CCNCCO)c3ccc(NCCNCCO)c1c23
active: dose: 2.75 mg/kg/injection, vehicle: water 169 % of control | dose: 5.5 mg/kg/injection, vehicle: water 233 % of control and 263 % of control | dose: 11.0 mg/kg/injection, vehicle: water 243 % of control
inactive: dose: 22.0 mg/kg/injection, vehicle: water 109 % of control

NCc1cc(O)c(O)c(O)c1
inactive: [15] 100 % of control and 106 % of control | dose: 150.0 mg/kg/injection, vehicle: saline 100 % of control and 104 % of control | dose: 300.0 mg/kg/injection, vehicle: saline 100 % of control and 104 % of control | dose: 600.0 mg/kg/injection, vehicle: saline 101 % of control and 118 % of control | dose: 1200.0 mg/kg/injection, vehicle: saline 104 % of control

CC[n+]1c([S-])nn(C)c1-c1cnccn1
inactive: dose: 37.5 mg/kg/injection, vehicle: saline with Tween-80 103 % of control | dose: 75.0 mg/kg/injection, vehicle: saline with Tween-80 107 % of control | dose: 150.0 mg/kg/injection, vehicle: saline with Tween-80 96 % of control | dose: 300.0 mg/kg/injection, vehicle: saline with Tween-80 112 % of control | dose: 600.0 mg/kg/injection, vehicle: saline with Tween-80 95 % of control

CC(C)N1C(=O)N(Cl)C2C1N(Cl)C(=O)N2Cl (stereo not given)
inactive: dose: 6.25 mg/kg/injection, vehicle: sodium bicarbonate 102 % of control | dose: 12.5 mg/kg/injection, vehicle: sodium bicarbonate 107 % of control | dose: 25.0 mg/kg/injection, vehicle: sodium bicarbonate 94 % of control | [2] 91 % of control | dose: 50.0 mg/kg/injection, vehicle: sodium bicarbonate 114 % of control | dose: 100.0 mg/kg/injection, vehicle: sodium bicarbonate 109 % of control

Cn1c2c(c3nc(N)nc(N)c3c1=O)CCc1ccccc1-2
inactive: dose: 25.0 mg/kg/injection, vehicle: distilled water + alcohol 100 % of control | dose: 50.0 mg/kg/injection, vehicle: distilled water + alcohol 104 % of control | dose: 100.0 mg/kg/injection, vehicle: distilled water + alcohol 100 % of control
